In US7632855B2, “Pyrazole compounds as HSP90 inhibitors for the treatment of cancer” (Vernalis (Cambridge) Limited, priority 2003, dated 2009):

Each compound was assayed against T1, human full-length HSP90 (Homo sapiens, UniProt P08238) (assay: Fluorescence Polarisation Assay (competitive displacement of probe RBT0045864-FAM from HSP90)). Details: E. coli expressed human full-length Hsp90 200 nM; probe RBT0045864-FAM 80 nM; read-out: Hsp90 FP IC50.
T1 construct: E. coli expressed human full-length HSP90 protein, purified >95%; made in house; host or cells: E. coli
Type: binding
Description: Fluorescence Polarization Assay
Fluorescence polarization {also known as fluorescence anisotropy} measures the rotation of a fluorescing species in solution, where the larger molecule the more polarized the fluorescence emission. When the fluorophore is excited with polarized light, the emitted light is also polarized. The molecular size is proportional to the polarization of the fluorescence emission. The fluoroscein-labelled probe—RBT0045864-FAM—binds to HSP90 {full-length human, full-length yeast or N-terminal domain HSP90 } and the anisotropy {rotation of the probe-protein complex} is measured.
Compound is added to the assay plate, left to equilibrate and the anisotropy measured again. Any change in anisotropy is due to competitive binding of compound to HSP90, thereby releasing probe.
Chemicals are of the highest purity commercially available and all aqueous solutions are made up in AR water. • 1) Costar 96-well black assay plate #3915 • 2) Assay buffer of (a) 100 mM Tris pH7.4; (b) 20 mM KCl; (c) 6mM MgCl2. Stored at room temperature. • 3) BSA (bovine serum albumen) 10 mg/ml (New England Biolabs # B9001S) • 4) 20 mM RBT0045864 (pyrazole) in 100% DMSO stock concentration. Stored in the dark at RT. Made in-house, Kd^˜[…], depending on the protein used. Working concentration is 200 nM diluted in AR water and stored at 4° C. Final concentration in assay 80 nM. • 5) E. coli expressed human full-length HSP90 protein, purified >95% (see, e.g., Panaretou et al., EMBO J., Vol. 17, pp. 4829-4836, 1998) and stored in 50 μL aliquots at −80° C. Protocol • 1) Add 100 μl 1× buffer to wells 11A and 12A (=FP BLNK) • 2) Prepare assay mix—all reagents are kept on ice with a lid on the bucket as the probe is light-sensitive.
• 3) Aliquot 100 μl assay mix to all other wells • 4) Seal plate and leave in dark at room temp for 20 minutes to equilibrate Compound Dilution Plate—1×3 Dilution Series • 1) In a clear 96-well v-bottom plate—{# VWR 007/008/257} add 10 μl 100% DMSO to wells B1 to H11 • 2) To wells A1 to A11 add 17.5 μl 100% DMSO • 3) Add 2.5 μl cpd to A1. This gives 2.5 mM {50×} stock cpd—assuming cpds 20 mM. • 4) Repeat for wells A2 to A10. Control in columns 11 and 12. • 5) Transfer 5 μl from row A to row B—not column 12. Mix well. • 6) Transfer 5 μl from row B to row C. […] In column 11 {provides standard curve} only add compound B11-H11. Add 2 μl of 100 mM standard cpd to wells B12-H12 {is positive control}
The Z′ factor is calculated from zero controls and positive wells. It typically gives a value of 0.7-0.9.

T1 sequence (P08238 whole entry): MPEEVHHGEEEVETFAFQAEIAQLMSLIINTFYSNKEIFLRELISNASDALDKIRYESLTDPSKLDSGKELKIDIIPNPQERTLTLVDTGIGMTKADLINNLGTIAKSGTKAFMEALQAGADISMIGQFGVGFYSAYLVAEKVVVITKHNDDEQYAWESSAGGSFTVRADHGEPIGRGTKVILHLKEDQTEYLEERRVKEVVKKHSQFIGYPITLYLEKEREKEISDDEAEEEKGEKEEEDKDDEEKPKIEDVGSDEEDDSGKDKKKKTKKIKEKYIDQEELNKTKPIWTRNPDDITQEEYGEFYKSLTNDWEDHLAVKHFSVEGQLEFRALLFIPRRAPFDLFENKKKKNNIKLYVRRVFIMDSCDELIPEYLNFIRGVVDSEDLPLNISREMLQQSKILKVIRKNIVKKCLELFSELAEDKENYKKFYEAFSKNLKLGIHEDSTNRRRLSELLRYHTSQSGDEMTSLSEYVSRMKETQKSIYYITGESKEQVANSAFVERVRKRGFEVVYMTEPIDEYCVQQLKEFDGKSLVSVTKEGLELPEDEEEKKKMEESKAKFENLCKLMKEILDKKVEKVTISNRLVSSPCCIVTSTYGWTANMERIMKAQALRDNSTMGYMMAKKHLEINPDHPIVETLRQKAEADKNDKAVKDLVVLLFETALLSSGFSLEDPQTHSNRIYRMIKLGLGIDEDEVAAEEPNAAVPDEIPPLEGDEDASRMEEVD

Row | IC50 | SMILES
1 | < 10 µM | COc1ccc(-c2c(-c3cc(Cl)c(O)cc3O)n[nH]c2C(=O)N[C@H](C)C(=O)NCCN2CCOCC2)cc1 [Example 16]
2 | < 10 µM | COc1ccc(-c2c(-c3cc(Cl)c(O)cc3O)n[nH]c2C(=O)N[C@H](C)C(=O)NC(C)C)cc1 [Example 14]
3 | < 10 µM | COC(=O)[C@H](C)NC(=O)c1[nH]nc(-c2cc(Cl)c(O)cc2O)c1-c1ccc(OC)cc1 [Example 8]
4 | < 10 µM | COC(=O)CNC(=O)c1[nH]nc(-c2cc(Cl)c(O)cc2O)c1-c1ccc(OC)cc1 [Example 6]
5 | < 10 µM | COc1ccc(-c2c(-c3cc(Cl)c(O)cc3O)n[nH]c2C(=O)N[C@@H](C)C(N)=O)cc1 [Example 10]
6 | < 10 µM | COC(=O)[C@@H](C)NC(=O)c1[nH]nc(-c2cc(Cl)c(O)cc2O)c1-c1ccc(OC)cc1 [Example 7]
7 | < 10 µM | COc1ccc(-c2c(-c3cc(Cl)c(O)cc3O)n[nH]c2C(=O)N[C@H](C)C(N)=O)cc1 [Example 9]
8 | < 10 µM | CNC(=O)[C@@H](C)NC(=O)c1[nH]nc(-c2cc(Cl)c(O)cc2O)c1-c1ccc(OC)cc1 [Example 13]
9 | < 10 µM | COC(=O)C(C)NC(=O)c1[nH]nc(-c2cc(Cl)c(O)cc2O)c1-c1ccc(OC)cc1 (stereo not shown) [Example 3]
10 | < 10 µM | CCNC(=O)[C@@H](C)NC(=O)c1[nH]nc(-c2cc(Cl)c(O)cc2O)c1-c1ccc(OC)cc1 [Example 18]
11 | < 10 µM | COc1ccc(-c2c(-c3cc(Cl)c(O)cc3O)n[nH]c2C(=O)N[C@H](C)C(=O)N2CCN(C)CC2)cc1 [Example 12]
12 | < 10 µM | COc1ccc(-c2c(-c3cc(Cl)c(O)cc3O)n[nH]c2C(=O)N[C@H](C)C(=O)NCCN(C)C)cc1 [Example 15]
13 | < 10 µM | COc1ccc(-c2c(-c3cc(Cl)c(O)cc3O)n[nH]c2C(=O)NC(C)C(=O)O)cc1 (stereo not shown) [Example 4]
